pIC50: −log10 of the molar value.
Experiments:
[1] = biological target: purified human, His-tagged PRC2 complex (Homo sapiens (Human), UniProt O75530); assay: Hot Spot HMT assay of PRC2 enzymatic activity (tritiated methyl transfer from SAM to core histone); format: biochemical; conditions: 10 nM purified PRC2 complex, 0.05 mg/ml core histone H3, 1 uM 3H-SAM, 1 hr at 30° C.; read-out: IC50, Inhibition of PRC2-mediated Enzymatic Activity
Experimental: Ten-point dose-response curves for compounds of the present invention were determined using a Hot Spot HMT assay (Reaction Biology Corp; see Horiuchi et al., Assay Drug Dev Technol. (2013) 4: 227-236 doi: 10.1089/adt.2012.480). The assay uses purified human, His-tagged PRC2 complex, including N-terminal His-tagged EZH2 enzyme, N-terminal Flag-tagged embryonic ectoderm development protein (EED), N-terminal His-tagged suppressor of zeste 12 (SUZ12), N-terminal His-tagged AEBP2, and N-terminal His-tagged RbAp48. In this assay, the transfer of the tritiated methyl group from radiolabeled S-adenosyl methionine (SAM) to purified core histone protein by EZH2 is quantitated after filtration to determine the activity of the core PRC2 complex in the presence and absence of compound.
Briefly, compounds of the present invention were solubilized in DMSO and a series of 10, three-fold serial dilutions were made for each compound in 15% DMSO. The initial starting concentration for the serial dilutions of each compound was 1.0 μM. Control samples lacking compound, EZH2 enzyme or various reaction components also were prepared and processed in parallel with compound test samples. SAH (S-(5-adenosyl)-L-homocysteine) was used as a positive control for assay validation.
An aliquot of each serial dilution of test compound was added to deep 384 well plate using Acoustic Technology instrument (Echo 550, LabCyte) containing reaction buffer (50 mM Tris-HCl (pH 8.)), 0.01% Brij35, 1 mM EDTA, 1 mM DTT, 1 mM PMSF and 1% DMSO), 10 nM purified PRC2 complex and 0.05 mg/ml core histone H3 in a 5 μl volume. The reaction was mixed gently and then pre-incubated for 20 min at 30° C. The enzymatic reaction was initiated by adding 1 uM S-Adenosyl-L-[methyl ^3H]methionine and incubated for 1 hr at 30° C. After 1 hr, the reaction product was detected using a filter binding method and the amount of tritiated H3 core histone was quantitated using a scintillation counter. The IC50 value for each compound was determined from each 10-point dose-response curve using GraphPad Prism software and the results for exemplary compounds of Formula (I) are shown in Table 5. Key: A=≤250 nM; B=>250 nM—≤500 nM; and C=>500 nM—≤2 μM.

[2] = test system: PRC2-mediated histone H3 methylation (H3 Lys27 trimethylation) in Pfeiffer cells expressing mutant EZH2 (A677G); assay: Tri-Methyl Histone H3 (Lys 27) sandwich ELISA in Pfeiffer cells; format: cell-based, human; conditions: Homo sapiens; Pfeiffer cells, 96 hours incubation, ELISA; read-out: IC50, Inhibition of EZH2-mediated Histone H3 Trimethylation
Text: The Pfeiffer cell line was established from a […] from a patient having metastatic diffuse large B-cell lymphoma (DLBCL). This cell line expresses a mutant form of the EZH2 enzyme (A677G) that results in enhanced EZH2 activity leading to increased methylation of histone H3 Lys27. Increased trimethylation of histone H3 Lys27 is believed to be implicated in tumorgenesis and poor clinical prognosis in lymphomas (McCabe et al., (2012) Nature 492:108-112).
Inhibition of PRC2-mediated histone H3 methylation by compounds of Formula (I) was measured by ELISA using a Tri-Methyl Histone H3 (Lys 27) Sandwich ELISA Kit (Cell Signaling Tech #7866C) in accordance with the manufacturer's instructions. Briefly, Pfeiffer cells were cultured in RPMI medium supplemented with 10% fetal bovine serum and 1% penicillin and 1% streptomycin in 96 well culture plates at 37° C. to a density of 8000 cells/90 μl/well and the cells were harvested. A series of 3-fold serial dilutions of each test compound of Formula (I) were prepared in RPMI medium and added to the cells at final concentrations ranging from 1 μM to 0.15 nM. The plates were incubated at 37° C. for 96 hours.
After incubation, the cells were pelleted by centrifugation in a pre-cooled 4° C. rotor at 1,100 rpm for 10 min and the supernatant was removed by aspiration. The cell pellet was resuspended in 55 μl of Lysis Buffer (0.4M HCl) and incubated on ice with periodic shaking for 30 minutes. The lysed cells were subjected to centrifugation at 4,200 rpm for 10 min at 4° C. and the supernatant containing acid-soluble proteins was collected and the remainder discarded. The acid-soluble proteins were brought to a neutral pH by the addition of 20 μl of Neutralization Buffer (1 M Sodium phosphate, dibasic (pH 12.5), 2.5 mM DTT and 1 mM PMSF) and the neutralized lysates were analyzed by ELISA.
A 65 μl aliquot of each cell lysate was added to a well of a microwell strip, the microwells were sealed using tape and incubated either at 37° C. for two hours or at 4° C. overnight. After incubation, the tape was removed at the microwells were washed four times using 200 μl of 1× Wash Buffer. To each washed microwell, a 100 μl aliquot of an anti-trimethyl histone H3 Lys27 Detection Antibody solution was added and the microwells were incubated at 37° C. for one hour. The Detection Antibody solution was removed by aspiration and the wells were washed four times each using 200 μl of 1× Wash Buffer.
A 100 μl aliquot of an HRP-linked secondary antibody was added to each well, the wells were sealed with tape and incubated at 37° C. for 30 min. The HRP-linked secondary antibody solution was removed by aspiration and the wells were washed four times using 200 μl of 1× Wash Buffer. A 100 μl aliquot of a TMB substrate was added to each well, the wells were sealed with tape and incubated at 37° C. for 10 min or 25° C. for 30 min. The reaction was stopped by the addition of 100 μl aliquot of a STOP solution and the plate was shaken briefly. The degree of histone H3 trimethylation was determined using a spectrophotometric readout by measuring the absorbance at 450 nm and then calculating the amount of trimethylated histone H3. Key: A=≤250 nM; B=>250 nM-≤500 nM; and C=>500 nM-≤5 μM.

[3] = test system: Karpas 422 cells expressing mutant EZH2 (Y641N); assay: Karpas 422 cell viability (Cell Titre Glo) assay; format: cell-based, human; conditions: Homo sapiens, CTG viability, time point (Day 4, Day 7 or Day 11) not given, read-out: IC50, Inhibiting Proliferation of Cells Expressing an Activating Mutant Form of EZH2
Experimental: Karpas 422 cell line is a human B cell non-Hodgkin's lymphoma cell line established from a patient having DLBCL. This EZH2 heterozygotic cell line expresses a mutant form of EZH2 enzyme (Y641N) that increases histone H3 methylation and this mutation has been implicated in the tumorgenesis of lymphomas, such as DLBCL.
Karpas 422 cells (PHE cat no., 06101702) were cultured in RPMI medium supplemented with 20% fetal bovine serum and 1% penicillin/1% streptomycin and plated at a density of 1000 cells/90 μl/well in 96 well white assay plates. A dose response curve for compounds of the present invention was determined by adding a 10 μl aliquot of stock solutions of varying concentrations of compounds to the same medium in each well, over a concentration range of 10 μM using 3-fold dilutions to a final concentration of 1.5 nM. The plates were incubated at 37° C. for predetermined time periods, Day 4, Day 7, or Day 11, and the viability of the cells was measured using a CTG assay kit (Cell Titre Glo; Promega cat. no G7573) on Day 4 and Day 7 in accordance with the manufacturer's instructions.
For the viability assay for the Day 11 plates, the plates were subjected to centrifugation at 1100 rpm for five minutes on Day 7 and the supernatant was removed by aspiration. The cells were resuspended in 90 μl aliquot of the appropriate growth medium lacking the compound followed by addition of 10 μl of a 10× stock of the same compound at the same concentration. The viability of the Day 11 cells was measured using the CTG assay kit described above in accordance with the manufacturer's instructions. The IC50 values for each compound at each predetermined time point were calculated using Graph pad PRISM software and the results are shown in Table 7. Key: A=≤250 nM; B=>250 nM-≤500 nM; C=>500 nM-≤5 μM and N.D.=not determined.

Sequence of purified human, His-tagged PRC2 complex (Q15910 whole entry): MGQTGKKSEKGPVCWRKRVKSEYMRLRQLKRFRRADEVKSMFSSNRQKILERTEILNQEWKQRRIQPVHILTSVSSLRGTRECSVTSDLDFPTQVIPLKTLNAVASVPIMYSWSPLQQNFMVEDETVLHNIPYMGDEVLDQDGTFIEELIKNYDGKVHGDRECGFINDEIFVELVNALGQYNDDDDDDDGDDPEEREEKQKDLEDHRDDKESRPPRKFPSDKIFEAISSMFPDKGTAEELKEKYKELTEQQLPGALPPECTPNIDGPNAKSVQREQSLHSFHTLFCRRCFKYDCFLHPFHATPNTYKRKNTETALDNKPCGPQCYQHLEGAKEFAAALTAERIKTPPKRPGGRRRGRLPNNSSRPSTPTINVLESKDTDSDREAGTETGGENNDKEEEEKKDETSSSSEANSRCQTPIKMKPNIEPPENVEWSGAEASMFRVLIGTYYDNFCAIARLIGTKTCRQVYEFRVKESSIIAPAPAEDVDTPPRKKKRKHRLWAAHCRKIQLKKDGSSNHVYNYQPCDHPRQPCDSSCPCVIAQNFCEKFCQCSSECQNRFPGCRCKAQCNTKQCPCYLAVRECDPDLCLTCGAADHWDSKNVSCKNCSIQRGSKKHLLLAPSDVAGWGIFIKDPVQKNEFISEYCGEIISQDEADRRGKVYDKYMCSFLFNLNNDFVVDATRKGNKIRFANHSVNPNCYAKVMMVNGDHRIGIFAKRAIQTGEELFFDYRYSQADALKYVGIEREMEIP
Sequence of purified human, His-tagged PRC2 complex (O75530 whole entry): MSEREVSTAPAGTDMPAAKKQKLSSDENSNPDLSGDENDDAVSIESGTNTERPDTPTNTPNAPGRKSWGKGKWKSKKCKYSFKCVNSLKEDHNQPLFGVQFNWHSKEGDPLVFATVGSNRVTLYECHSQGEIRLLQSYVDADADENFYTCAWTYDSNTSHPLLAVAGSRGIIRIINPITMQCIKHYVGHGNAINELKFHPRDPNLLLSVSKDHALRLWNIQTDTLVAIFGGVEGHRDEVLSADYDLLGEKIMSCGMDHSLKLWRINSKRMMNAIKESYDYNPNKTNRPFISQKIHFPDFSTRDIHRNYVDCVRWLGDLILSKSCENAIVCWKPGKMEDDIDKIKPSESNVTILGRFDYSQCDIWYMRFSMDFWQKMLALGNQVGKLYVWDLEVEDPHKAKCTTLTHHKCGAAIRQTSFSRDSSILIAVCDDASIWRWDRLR
Sequence of purified human, His-tagged PRC2 complex (Q15022 whole entry partner): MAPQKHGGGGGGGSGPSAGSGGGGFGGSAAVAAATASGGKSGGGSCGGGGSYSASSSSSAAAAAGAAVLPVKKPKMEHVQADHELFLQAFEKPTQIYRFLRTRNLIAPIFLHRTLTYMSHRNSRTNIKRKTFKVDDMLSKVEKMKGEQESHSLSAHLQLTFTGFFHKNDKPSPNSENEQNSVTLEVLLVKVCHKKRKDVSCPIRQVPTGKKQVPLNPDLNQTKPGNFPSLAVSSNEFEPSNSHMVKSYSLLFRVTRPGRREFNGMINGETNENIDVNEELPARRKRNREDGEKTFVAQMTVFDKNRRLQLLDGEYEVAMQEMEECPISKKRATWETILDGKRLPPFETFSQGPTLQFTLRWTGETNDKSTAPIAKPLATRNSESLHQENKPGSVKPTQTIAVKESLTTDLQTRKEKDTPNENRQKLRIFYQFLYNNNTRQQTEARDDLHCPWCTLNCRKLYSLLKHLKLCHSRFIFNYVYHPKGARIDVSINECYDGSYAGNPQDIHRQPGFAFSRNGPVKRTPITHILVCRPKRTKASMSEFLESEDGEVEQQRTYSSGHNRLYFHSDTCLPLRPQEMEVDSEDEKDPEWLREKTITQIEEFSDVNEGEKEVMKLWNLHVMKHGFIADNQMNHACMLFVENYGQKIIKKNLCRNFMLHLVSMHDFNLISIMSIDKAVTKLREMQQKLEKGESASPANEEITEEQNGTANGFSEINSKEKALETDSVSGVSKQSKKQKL
Sequence of purified human, His-tagged PRC2 complex (Q6ZN18 whole entry partner): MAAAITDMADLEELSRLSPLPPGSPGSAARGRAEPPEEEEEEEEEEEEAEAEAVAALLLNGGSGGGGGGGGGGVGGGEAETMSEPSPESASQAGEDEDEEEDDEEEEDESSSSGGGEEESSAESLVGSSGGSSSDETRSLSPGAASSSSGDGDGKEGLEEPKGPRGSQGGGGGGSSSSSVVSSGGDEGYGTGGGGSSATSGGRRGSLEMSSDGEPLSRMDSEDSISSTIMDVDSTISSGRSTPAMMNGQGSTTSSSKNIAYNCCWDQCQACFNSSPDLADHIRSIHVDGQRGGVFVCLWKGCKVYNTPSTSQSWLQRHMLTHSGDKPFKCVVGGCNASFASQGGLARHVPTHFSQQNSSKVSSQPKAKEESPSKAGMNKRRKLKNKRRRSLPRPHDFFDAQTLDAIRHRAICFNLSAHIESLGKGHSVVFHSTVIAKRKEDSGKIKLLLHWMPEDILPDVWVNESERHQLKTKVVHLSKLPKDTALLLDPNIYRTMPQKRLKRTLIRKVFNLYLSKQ
Sequence of purified human, His-tagged PRC2 complex (Q09028 whole entry partner): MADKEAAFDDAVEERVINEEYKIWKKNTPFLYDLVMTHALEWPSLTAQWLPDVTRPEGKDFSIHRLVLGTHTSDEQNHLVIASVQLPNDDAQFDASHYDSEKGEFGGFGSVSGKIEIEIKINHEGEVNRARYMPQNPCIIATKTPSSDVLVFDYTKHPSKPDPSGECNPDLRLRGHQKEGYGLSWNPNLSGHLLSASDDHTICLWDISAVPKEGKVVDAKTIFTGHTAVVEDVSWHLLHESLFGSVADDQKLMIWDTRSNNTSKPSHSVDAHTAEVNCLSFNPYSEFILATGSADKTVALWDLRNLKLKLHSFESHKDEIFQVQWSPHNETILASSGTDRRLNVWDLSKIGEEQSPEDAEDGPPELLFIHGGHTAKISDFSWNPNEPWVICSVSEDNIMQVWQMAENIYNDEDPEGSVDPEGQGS

| SMILES | pIC50 [1] | pIC50 [2] | pIC50 [3] |
| --- | --- | --- | --- |
| Cc1cc(-c2cnc(NCc3c(F)ccc4c3CCO4)n3cc(CN4CC(O)C4)nc23)n(C)n1 [Example 31, 1-((8-(1,3-dimethyl-1H-pyrazol-5-yl)-5-(((5-fluoro-2,3-dihydrobenzofuran-4-yl)methyl)amino)imidazo[1,2-c]pyrimidin-2-yl)methyl)azetidin-3-ol] | 5.70 to 6.30 | 5.30 to 6.30 | 5.30 to 6.30 |
| Cc1cc(S(C)(=O)=O)ccc1-c1cnc(NCc2c(F)ccc3c2CCO3)n2cc(CO)nc12 [Example 2, (5-(((5-fluoro-2,3-dihydrobenzofuran-4-yl)methyl)amino)-8-(2-methyl-4-(methylsulfonyl)phenyl)imidazo[1,2-c]pyrimidin-2-yl)methanol] | > 6.60 | – | 5.30 to 6.30 |
| Cc1cc(C(=O)N(C)C)ncc1-c1cnc(NCc2c(F)ccc3c2CCO3)n2cc(C(C)N)nc12 (centres unmarked) [Example 35, 5-(2-(1-aminoethyl)-5-(((5-fluoro-2,3-dihydrobenzofuran-4-yl)methyl)amino)imidazo[1,2-c]pyrimidin-8-yl)-N,N,4-trimethylpicolinamide] | > 6.60 | > 6.60 | > 6.60 |
| Cc1ncccc1-c1cnc(NCc2c(F)ccc3c2CCO3)n2cc(CO)nc12 [Example 3, (5-(((5-fluoro-2,3-dihydrobenzofuran-4-yl)methyl)amino)-8-(2-methylpyridin-3-yl)imidazo[1,2-c]pyrimidin-2-yl)methanol] | 5.70 to 6.30 | – | 5.30 to 6.30 |
| COc1ccc(-c2cnc(NCc3c(F)ccc4c3CCO4)n3cc(CO)nc23)c(C)n1 [Example 5, (5-(((5-fluoro-2,3-dihydrobenzofuran-4-yl)methyl)amino)-8-(6-methoxy-2-methylpyridin-3-yl)imidazo[1,2-c]pyrimidin-2-yl)methanol] | 5.70 to 6.30 | – | 6.30 to 6.60 |
| Cc1cc(-c2cnc(NCc3c(F)ccc4c3CCO4)n3cc(CO)nc23)n(C)n1 [Example 1, (8-(1,3-dimethyl-1H-pyrazol-5-yl)-5-(((5-fluoro-2,3-dihydrobenzofuran-4-yl)methyl)amino)imidazo[1,2-c]pyrimidin-2-yl)methanol] | > 6.60 | – | > 6.60 |
| Cc1cc(-c2cnc(NCc3c(F)ccc4c3CCO4)n3cc(C(O)c4ccccc4)nc23)n(C)n1 (centres unmarked) [Example 8] | 6.30 to 6.60 | – | – |
| CNCc1cn2c(NCc3c(F)ccc4c3CCO4)ncc(-c3cc(C)nn3C)c2n1 [Example 25, 8-(1,3-dimethyl-1H-pyrazol-5-yl)-N-((5-fluoro-2,3-dihydrobenzofuran-4-yl)methyl)-2-((methylamino)methyl)imidazo[1,2-c]pyrimidin-5-amine] | 6.30 to 6.60 | – | 6.30 to 6.60 |
| Cn1nccc1-c1cnc(NCc2c(F)ccc3c2CCO3)n2cc(CO)nc12 [Example 6, (5-(((5-fluoro-2,3-dihydrobenzofuran-4-yl)methyl)amino)-8-(1-methyl-1H-pyrazol-5-yl)imidazo[1,2-c]pyrimidin-2-yl)methanol] | 6.30 to 6.60 | > 6.60 | – |
| NCc1cn2c(NCc3c(F)ccc4c3CCO4)ncc(-c3cccc(F)c3)c2n1 [Example 14, 2-(aminomethyl)-N-((5-fluoro-2,3-dihydrobenzofuran-4-yl)methyl)-8-(3-fluorophenyl)imidazo[1,2-c]pyrimidin-5-amine] | 6.30 to 6.60 | – | 5.30 to 6.30 |
| Cc1cc(-c2cnc(NCc3c(F)ccc4c3CCO4)n3cc(C(N)C(F)(F)F)nc23)n(C)n1 (centres unmarked) [Example 42, 2-(1-amino-2,2,2-trifluoroethyl)-8-(1,3-dimethyl-1H-pyrazol-5-yl)-N-((5-fluoro-2,3-dihydrobenzofuran-4-yl)methyl)imidazo[1,2-c]pyrimidin-5-amine] | 6.30 to 6.60 | – | – |
| OCc1cn2c(NCc3c(F)ccc4c3CCO4)ncc(-c3ccc(C4CC4)nc3)c2n1 [Example 4, (8-(6-cyclopropylpyridin-3-yl)-5-(((5-fluoro-2,3-dihydrobenzofuran-4-yl)methyl)amino)imidazo[1,2-c]pyrimidin-2-yl)methanol] | 5.70 to 6.30 | – | 5.30 to 6.30 |
| Cc1cc(-c2cnc(NCc3c(F)ccc4c3CCO4)n3cc(-c4nn[nH]n4)nc23)n(C)n1 [Example 43, 8-(1,3-dimethyl-1H-pyrazol-5-yl)-N-((5-fluoro-2,3-dihydrobenzofuran-4-yl)methyl)-2-(2H-tetrazol-5-yl)imidazo[1,2-c]pyrimidin-5-amine] | > 6.60 | – | – |
| Cc1cc(-c2cnc(NCc3c(F)ccc4c3CCO4)n3cc(CN(C)C)nc23)n(C)n1 [Example 26, 8-(1,3-dimethyl-1H-pyrazol-5-yl)-2-((dimethylamino)methyl)-N-((5-fluoro-2,3-dihydrobenzofuran-4-yl)methyl)imidazo[1,2-c]pyrimidin-5-amine] | 5.70 to 6.30 | – | – |

Reference: patent publication US12252493B2, “Imidazo[1,2-c]pyrimidine derivatives as PRC2 inhibitors for treating cancer” (Mirati Therapeutics, Inc., priority 2019, dated 2025)
